Test results reported in PubChem BioAssay (NCI).
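GI50: concentration for 50% inhibition of growth. At the TGI there is no net growth.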

How the values were obtained:
Assay in all cases: NCI-60 cell line screen, 384-well format
A498 renal = system: A498 renal
A549 NSCLC = system: A549 NSCLC
ACHN renal = system: ACHN renal
BT-549 breast = system: BT-549 breast
CAKI-1 renal = system: CAKI-1 renal
COLO 205 colon = system: COLO 205 colon
DU-145 prostate = system: DU-145 prostate
EKVX NSCLC = system: EKVX NSCLC
HCC-2998 colon = system: HCC-2998 colon
HCT-116 colon = system: HCT-116 colon
HCT-15 colon = system: HCT-15 colon
HL-60(TB) leukemia = system: HL-60(TB) leukemia
HOP-62 NSCLC = system: HOP-62 NSCLC
HOP-92 NSCLC = system: HOP-92 NSCLC
HS 578T breast = system: HS 578T breast
HT29 colon = system: HT29 colon
IGROV1 ovarian = system: IGROV1 ovarian
KM12 colon = system: KM12 colon
LOX IMVI melanoma = system: LOX IMVI melanoma
M14 melanoma = system: M14 melanoma
MALME-3M melanoma = system: MALME-3M melanoma
MCF7 breast = system: MCF7 breast
MDA-MB-231 breast = system: MDA-MB-231 breast
MDA-MB-435 melanoma = system: MDA-MB-435 melanoma
MDA-MB-468 breast = system: MDA-MB-468 breast
MOLT-4 leukemia = system: MOLT-4 leukemia
NCI-H226 lung = system: NCI-H226 lung
NCI-H23 lung = system: NCI-H23 lung
NCI-H322M lung = system: NCI-H322M lung
NCI-H460 NSCLC = system: NCI-H460 NSCLC
NCI-H522 lung = system: NCI-H522 lung
NCI/ADR-RES ovarian = system: NCI/ADR-RES ovarian
OVCAR-3 ovarian = system: OVCAR-3 ovarian
OVCAR-4 ovarian = system: OVCAR-4 ovarian
OVCAR-5 ovarian = system: OVCAR-5 ovarian
OVCAR-8 ovarian = system: OVCAR-8 ovarian
PC-3 prostate = system: PC-3 prostate
RPMI-8226 leukemia = system: RPMI-8226 leukemia
RXF 393 renal = system: RXF 393 renal
SF-268 CNS = system: SF-268 CNS
SF-295 CNS = system: SF-295 CNS
SF-539 CNS = system: SF-539 CNS
SK-MEL-28 melanoma = system: SK-MEL-28 melanoma
SK-MEL-5 melanoma = system: SK-MEL-5 melanoma
SK-OV-3 ovarian = system: SK-OV-3 ovarian
SN12C renal = system: SN12C renal
SNB-19 CNS = system: SNB-19 CNS
SNB-75 CNS = system: SNB-75 CNS
SR leukemia = system: SR leukemia
T-47D breast = system: T-47D breast
TK-10 renal = system: TK-10 renal
U251 glioblastoma = system: U251 glioblastoma
UACC-257 melanoma = system: UACC-257 melanoma
UACC-62 melanoma = system: UACC-62 melanoma

## O=C(O)CCCCC(CCSCc1ccccc1)SCc1ccccc1 (stereo not drawn)
A498 renal
  GI50: 42.3 µM
  TGI: > 100 µM
A549 NSCLC
  GI50: 44 µM
  TGI: > 100 µM
ACHN renal
  GI50: > 100 µM
  TGI: > 100 µM
BT-549 breast
  GI50: > 100 µM
  TGI: > 100 µM
CAKI-1 renal
  GI50: > 100 µM
  TGI: > 100 µM
COLO 205 colon
  GI50: > 100 µM
  TGI: > 100 µM
DU-145 prostate
  GI50: 64 µM
  TGI: > 100 µM
EKVX NSCLC
  GI50: 37.3 µM
  TGI: > 100 µM
HCC-2998 colon
  GI50: 47.5 µM
  TGI: > 100 µM
HCT-116 colon
  GI50: 47.5 µM
  TGI: > 100 µM
HCT-15 colon
  GI50: 45.1 µM
  TGI: > 100 µM
HL-60(TB) leukemia
  GI50: 58.8 µM
  TGI: > 100 µM
HOP-62 NSCLC
  GI50: 50.4 µM
  TGI: > 100 µM
HOP-92 NSCLC
  GI50: > 100 µM
  TGI: > 100 µM
HS 578T breast
  GI50: > 100 µM
  TGI: > 100 µM
HT29 colon
  GI50: 53.7 µM
  TGI: > 100 µM
IGROV1 ovarian
  GI50: 68.3 µM
  TGI: > 100 µM
KM12 colon
  GI50: 45.4 µM
  TGI: > 100 µM
LOX IMVI melanoma
  GI50: > 100 µM
  TGI: > 100 µM
M14 melanoma
  GI50: > 100 µM
  TGI: > 100 µM
MALME-3M melanoma
  GI50: > 100 µM
  TGI: > 100 µM
MCF7 breast
  GI50: 66.9 µM
  TGI: > 100 µM
MDA-MB-231 breast
  GI50: > 100 µM
  TGI: > 100 µM
MDA-MB-435 melanoma
  GI50: > 100 µM
  TGI: > 100 µM
MDA-MB-468 breast
  GI50: 39.7 µM
  TGI: > 100 µM
MOLT-4 leukemia
  GI50: > 100 µM
  TGI: > 100 µM
NCI-H226 lung
  GI50: 97.6 µM
  TGI: > 100 µM
NCI-H23 lung
  GI50: 50.5 µM
  TGI: > 100 µM
NCI-H322M lung
  GI50: 90.6 µM
  TGI: > 100 µM
NCI-H460 NSCLC
  GI50: 34.2 µM
  TGI: > 100 µM
NCI-H522 lung
  GI50: 27.6 µM
  TGI: 73.3 µM
NCI/ADR-RES ovarian
  GI50: > 100 µM
  TGI: > 100 µM
OVCAR-3 ovarian
  GI50: 45.2 µM
  TGI: > 100 µM
OVCAR-4 ovarian
  GI50: 59 µM
  TGI: > 100 µM
OVCAR-5 ovarian
  GI50: > 100 µM
  TGI: > 100 µM
OVCAR-8 ovarian
  GI50: > 100 µM
  TGI: > 100 µM
PC-3 prostate
  GI50: 59.6 µM
  TGI: > 100 µM
RPMI-8226 leukemia
  GI50: 33.7 µM
  TGI: 84.4 µM
RXF 393 renal
  GI50: > 100 µM
  TGI: > 100 µM
SF-268 CNS
  GI50: > 100 µM
  TGI: > 100 µM
SF-295 CNS
  GI50: 39.3 µM
  TGI: > 100 µM
SF-539 CNS
  GI50: > 100 µM
  TGI: > 100 µM
SK-MEL-28 melanoma
  GI50: > 100 µM
  TGI: > 100 µM
SK-MEL-5 melanoma
  GI50: 33.4 µM
  TGI: > 100 µM
SK-OV-3 ovarian
  GI50: > 100 µM
  TGI: > 100 µM
SN12C renal
  GI50: > 100 µM
  TGI: > 100 µM
SNB-19 CNS
  GI50: 94 µM
  TGI: > 100 µM
SNB-75 CNS
  GI50: > 100 µM
  TGI: > 100 µM
SR leukemia
  GI50: 22.6 µM
  TGI: 67.1 µM
T-47D breast
  GI50: 68.7 µM
  TGI: > 100 µM
TK-10 renal
  GI50: 50.2 µM
  TGI: > 100 µM
U251 glioblastoma
  GI50: 45.3 µM
  TGI: > 100 µM
UACC-257 melanoma
  GI50: 62.2 µM
  TGI: > 100 µM
UACC-62 melanoma
  GI50: 75.7 µM
  TGI: > 100 µM
